# In patent US20240246941A1, “SUBSTITUTED 4-(3-AMINOPROP-1-YL)AMINOQUINOLINE ANALOGS AS MODULATORS OF MELANOMA-ASSOCIATED ANTIGEN 11 UBIQUITIN LIGASE” (ST. JUDE CHILDREN'S RESEARCH HOSPITAL, INC., priority 2020, published 2024):
# Biological target: MAGE-A11:PCF11 (Homo sapiens (Human), UniProt P43364)
# Experiment: TR-FRET single point screening at 15 μM
# Type: binding
# Set-up: unit not given here
# Conditions: single point TR-FRET screening at 15 μM against MAGE-A11:PCF11
# Procedure, shortened: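 Competition TR-FRET: compounds at final 15 μM mixed with 200 nM FAM-PCF11_4, 5 nM GST-MAGEA11 and 5 nM Tb-anti-GST in Tris pH 7.5/MgCl2/BSA/DTT buffer, room temperature, 90 min. Emission ratio 520/490 nm (340 nm excitation) expressed as % inhibition relative to positive and negative controls.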
# Chain of MAGE-A11:PCF11 (P43364 218-429): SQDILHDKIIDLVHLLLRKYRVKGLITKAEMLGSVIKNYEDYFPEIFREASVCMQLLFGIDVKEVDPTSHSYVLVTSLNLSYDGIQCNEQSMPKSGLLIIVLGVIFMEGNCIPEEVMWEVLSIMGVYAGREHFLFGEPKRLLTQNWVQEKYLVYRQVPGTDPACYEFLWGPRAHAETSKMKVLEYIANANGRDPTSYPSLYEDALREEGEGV
row,Structure (SMILES),TR-FRET signal
1,Cc1ccc(C)c(N2CCN(c3c(S(=O)(=O)c4ccccc4)cnc4ccc(F)cc34)CC2)c1 [SJ000117083],−15.38
2,COc1ccccc1N1CCN(c2c(S(=O)(=O)c3ccc(C)c(C)c3)cnc3ccccc23)CC1 [SJ000117068],−5.706
3,COc1ccc(N2CCN(c3c(S(=O)(=O)c4ccccc4)cnc4ccc(C)cc34)CC2)cc1 [SJ000083981],−37.97
4,CCCN(CCCNc1c2ccc(Cl)cc2nc2ccc(OC)cc12)CCc1ccccc1 [SJ000520962],−591.7
5,CCCN(CCCNc1c2ccc(Cl)cc2nc2ccc(OC)cc12)Cc1ccc(F)cc1 [SJ000520946],−141.7
6,CCCN(CCCCNc1ccnc2cc(Cl)ccc12)Cc1c(F)cccc1OC [SJ000311203],6.844
7,Cc1cc(N2CCN(CC(O)CO)CC2)c2ccccc2n1 (stereo not drawn) [SJ000227653],−4.954
8,CCCN(CCCNc1c2ccc(Cl)cc2nc2ccc(OC)cc12)Cc1c(F)cccc1OC [SJ000522733],−187.1
9,Clc1ccc2c(NC3CCN(Cc4cccc5ccccc45)CC3)ccnc2c1 [SJ000523099],−6.179
10,COc1ccc2ncc(S(=O)(=O)c3ccc(C)c(C)c3)c(N3CCN(C)CC3)c2c1 [SJ000247333],−8.554
11,CCOc1ccc2ncc(S(=O)(=O)c3ccc(C)cc3)c(N3CCN(c4ccccc4)CC3)c2c1 [SJ000117049],−45.32
12,COc1ccc2nc3cc(Cl)ccc3c(NCCCNCc3cc(Br)cs3)c2c1 [SJ000520996],−287.6
13,CCc1ccc2ncc(S(=O)(=O)c3ccccc3)c(N3CCN(CC)CC3)c2c1 [SJ000083957],3.238
14,COc1cc2ncc(S(=O)(=O)c3ccc(Cl)cc3)c(N3CCN(C)CC3)c2cc1OC [SJ000083953],4.674
15,Clc1ccc2c(NC3CCN(Cc4ccccc4)CC3)ccnc2c1 [SJ000357524],6.554
16,CCOc1ccc2ncc(S(=O)(=O)c3ccc(C)c(C)c3)c(N3CCN(CC)CC3)c2c1 [SJ000247355],−13.39
17,CCc1ccc2ncc(S(=O)(=O)c3ccc(OC)cc3)c(N3CCN(C)CC3)c2c1 [SJ000083954],−5.969
18,CC(Nc1c2ccccc2nc2ccccc12)C(=O)NC(CC(N)=O)C(=O)O (stereo not drawn) [SJ000016433],22.71
19,COc1ccc2nc3cc(Cl)ccc3c(NCCCNCc3cccc4c3OCO4)c2c1 [SJ000520991],−257.1
20,Clc1ccc2c(NCCCCN(Cc3ccccc3)Cc3ccccn3)ccnc2c1 [SJ000312690],9.531
21,C#CCOCC(O)CN1CCN(c2cc(C(F)(F)F)nc3ccccc23)CC1 (stereo not drawn) [SJ000228018],−9.516
22,COc1ccc(N2CCN(c3c(S(=O)(=O)c4ccccc4)cnc4ccc(Cl)cc34)CC2)cc1 [SJ000083983],−17.94
23,CCCN(CCCNc1c2ccc(Cl)cc2nc2ccc(OC)cc12)CC(CC)CC [SJ000520939],−160.3

row,Structure (SMILES),TR-FRET signal
1,COc1ccc2nc3cc(Cl)ccc3c(NCCCNCc3ccccc3C(F)(F)F)c2c1 [SJ000361095],−169.5
2,CCc1ccc(S(=O)(=O)c2cnc3ccccc3c2N2CCN(C)CC2)cc1 [SJ000278939],11.58
3,CN(C)c1ccc(CN2CCC(Nc3ccnc4cc(Cl)ccc34)CC2)cc1 [SJ000523102],13.09
4,COc1cccc(F)c1CN1CCC(Nc2ccnc3cc(Cl)ccc23)CC1 [SJ000357498],10.5
5,COc1ccc2ncc(S(=O)(=O)c3ccc(Cl)cc3)c(N3CCN(C)CC3)c2c1 [SJ000083952],−3.658
6,CCN(CC)CCCC(C)Nc1ccnc2cc(Cl)ccc12 (stereo not drawn) [SJ000285185],−2.592
7,CN1CCN(c2c(S(=O)(=O)c3ccc(Cl)cc3)cnc3ccccc23)CC1 [SJ000247306],−10.14
8,Cc1[nH]cnc1CN(CCCCNc1ccnc2cc(Cl)ccc12)Cc1ccccc1 [SJ000520428],15.11
9,COc1ccc(F)c(CN(CCCCNc2ccnc3cc(Cl)ccc23)Cc2ccccc2)c1 [SJ000520441],14.55
10,Clc1ccc2c(NCCCCN(Cc3ccccc3)Cc3ccc4[nH]ccc4c3)ccnc2c1 [SJ000520434],69.44
11,COc1ccc2nc3cc(Cl)ccc3c(NCCCNCCC(C)SC)c2c1 (stereo not drawn) [SJ000361098],−514.5
12,Clc1ccc2c(NC3CCN(Cc4ccc(Cl)o4)CC3)ccnc2c1 [SJ000311180],0.6827
13,Clc1ccc2c(NC3CCN(Cc4ccc5ccccc5c4)CC3)ccnc2c1 [SJ000523100],4.171
14,CCC(C)CN1CCC(Nc2ccnc3cc(Cl)ccc23)CC1 (stereo not drawn) [SJ000523105],11.19
15,CCOc1ccc2ncc(S(=O)(=O)c3ccccc3)c(N3CCN(Cc4ccccc4)CC3)c2c1 [SJ000247249],−15.91
16,CCCCCCNCCCNc1c2ccc(Cl)cc2nc2ccc(OC)cc12 [SJ000361097],−281.7
17,CCCCNCCCNc1c2ccc(Cl)cc2nc2ccc(OC)cc12 [SJ000520995],−405.5
18,COc1ccccc1N1CCN(c2c(S(=O)(=O)c3ccccc3)cnc3ccc(C)cc23)CC1 [SJ000315081],−19.55
19,Fc1ccc(CN2CCC(Nc3ccnc4cc(Cl)ccc34)CC2)cc1 [SJ000523093],10.66
20,Cc1ccc(S(=O)(=O)c2cnc3ccccc3c2N2CCN(c3ccc(F)cc3)CC2)cc1 [SJ000117057],−20.61
21,COc1ccc(CNCCCNc2c3ccc(Cl)cc3nc3ccc(OC)cc23)cc1 [SJ000523033],−338.9
22,CCc1ccc2ncc(S(=O)(=O)c3ccc(OC)cc3)c(N3CCN(c4ccccc4)CC3)c2c1 [SJ000117056],−2.791

# Same assay, conditions: single point TR-FRET screening of quinoline compounds against MAGE-A11:PCF11; 15 μM
row,Structure (SMILES),TR-FRET signal
1,CCCN(CCCNc1ccnc2cc(Cl)ccc12)Cc1cc2ccccc2nc1Cl [SJ000522760],12.8
2,CCCN(CCCNc1ccnc2cc(C(F)(F)F)ccc12)Cc1ccsc1 [SJ000361254],28.88
3,CCCN(CCCNc1ccnc2cc(C(F)(F)F)ccc12)CCOCc1ccccc1 [SJ000521011],25.82
4,CCCN(CCCNc1ccnc2cc(C(F)(F)F)ccc12)Cc1cccc(OC)c1O [SJ000361260],15.49
5,CCCN(CCCNc1ccnc2cc(C(F)(F)F)ccc12)CCC(C)(C)C [SJ000520476],32.33
6,CCCN(CCCNc1ccnc2cc(C(F)(F)F)ccc12)Cc1c(F)cccc1C(F)(F)F [SJ000520481],11.47
7,CCCN(CCCNc1ccnc2cc(C(F)(F)F)ccc12)Cc1scnc1C [SJ000575179],5.164
8,CCCN(CCCNc1c2ccc(Cl)cc2nc2ccc(OC)cc12)CC1CCOC1 (stereo not drawn) [SJ000575149],−35.94
9,CCCN(CCCNc1ccnc2cc(C(F)(F)F)ccc12)Cc1ccccc1OC [SJ000523072],32.61
10,CCCN(CCCNc1ccnc2cc(C(F)(F)F)ccc12)Cc1ccncc1 [SJ000361251],17.49
11,Clc1ccc2c(NCCCN(Cc3ccccc3)Cc3cccc4ccccc34)ccnc2c1 [SJ000361181],26.23
12,COc1ccc2nc3cc(Cl)ccc3c(NCCCNCc3c4ccccc4cc4ccccc34)c2c1 [SJ000361099],−3.728
13,CCCN(CCCNc1ccnc2cc(C(F)(F)F)ccc12)Cc1cccc(OC(F)(F)F)c1 [SJ000520473],9.085
14,CCCN(CCCNc1ccnc2cc(C(F)(F)F)ccc12)Cc1cc(C(F)(F)F)ccc1OC [SJ000520486],8.188
15,Clc1ccc2c(NCCCN(Cc3ccccc3)Cc3ccc4[nH]ccc4c3)ccnc2c1 [SJ000520430],66.43
16,Clc1ccc2c(NCCCN(Cc3ccccc3)Cc3c[nH]c4ccccc34)ccnc2c1 [SJ000520433],40.19
17,CCCN(CCCNc1ccnc2cc(C(F)(F)F)ccc12)Cc1ncc[nH]1 [SJ000575181],9.345

row,Structure (SMILES),TR-FRET signal
1,CCCN(CCCNc1c2ccc(Cl)cc2nc2ccc(OC)cc12)Cc1c(F)c(F)c(F)c(F)c1F [SJ000522734],−2.258
2,Clc1ccc2c(NCCCN(Cc3ccccc3)Cc3cc4ccccc4o3)ccnc2c1 [SJ000520461],5.6
3,CCCN(CCCNc1ccnc2cc(C(F)(F)F)ccc12)Cc1ccccc1OC(F)(F)F [SJ000520470],5.934
4,Oc1c(F)cc(F)cc1CN(CCCNc1ccnc2cc(Cl)ccc12)Cc1ccccc1 [SJ000357504],27.64
5,CCCN(CCCNc1ccnc2cc(C(F)(F)F)ccc12)Cc1ccccc1 [SJ000361256],28.82
6,Clc1ccc2c(NCCCNCc3cc4ccccc4o3)ccnc2c1 [SJ000521029],17.91
7,Cc1ccc(CNCCCNc2ccnc3cc(Cl)ccc23)s1 [SJ000311190],10.83
8,CCCN(CCCNc1ccnc2cc(Cl)ccc12)Cc1cc2ccccc2o1 [SJ000522991],9.295
9,Clc1ccc2c(NCCCNCc3ccncc3)ccnc2c1 [SJ000523049],6.077
10,CCCN(CCCNc1c2ccc(Cl)cc2nc2ccc(OC)cc12)Cc1nc(C)cs1 [SJ000522966],−82.15
11,CC(CCNCCCNc1ccnc2cc(Cl)ccc12)c1ccccc1 (stereo not drawn) [SJ000523053],19.01
12,Clc1cccc(-c2ccc(CNCCCNc3ccnc4cc(Cl)ccc34)o2)c1 [SJ000523069],33.51
13,CCCN(CCCNc1c2ccc(Cl)cc2nc2ccc(OC)cc12)Cc1cc2ccccc2nc1Cl [SJ000522737],−83.74
14,CCCN(CCCNc1ccnc2cc(Cl)ccc12)CCC(C)(C)C [SJ000357570],12.11
15,CCCN(CCCCCC(=O)OC)CCCNc1ccnc2cc(Cl)ccc12 [SJ000523017],14.3
16,CCCN(CCCNc1ccnc2cc(C(F)(F)F)ccc12)CC1CCCCC1 [SJ000361268],33.31
